In US12156880B2, “Heterocyclic RIP1 kinase inhibitors” (Rigel Pharmaceuticals, Inc., priority 2021, dated 2024):
pIC50: −log10 of the molar value. Read-outs that look alike come from different tables or passages of the source.

Assays:
[1] = system: U937 cells; assay: U937 cell necroptosis assay (TNFa + zVAD, CellTiter-Glo recovery); type: cell-based; details: Homo sapiens, U-937, 18 h, TNFa 2 ng/mL + zVAD-fmk, read-out: U937 Zvad TNF CTG Recovery, U937, TNFa + zVAD (IC50)
In short: (§1)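 Human U937 (50K/well, 60 uM zVAD-fmk medium, plated same day) or murine L929 (10K/well, plated 18 h, then 40 uM zVAD-fmk medium) were grown in RPMI with 10% FBS. Both were pretreated with compound for 1 h at 37 °C before TNFa at 2 ng/mL final. Viability was read by CellTiter-Glo luminescence after 18 h.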

[2] = system: L929 cells; assay: L929 cell necroptosis assay (TNFa + zVAD, CellTiter-Glo recovery); type: cell-based, murine; details: Mus musculus, L929, 18 h, TNFa 2 ng/mL + zVAD-fmk, read-out: L929-CTG-recovery, L929, TNFa + zVAD (IC50)
In short: as §1

[3] = target: T1, RIPK1 (Homo sapiens, UniProt Q13546); assay: RIPK1 ADP-Glo biochemical kinase assay
T1 sequence (Q13546 1-671): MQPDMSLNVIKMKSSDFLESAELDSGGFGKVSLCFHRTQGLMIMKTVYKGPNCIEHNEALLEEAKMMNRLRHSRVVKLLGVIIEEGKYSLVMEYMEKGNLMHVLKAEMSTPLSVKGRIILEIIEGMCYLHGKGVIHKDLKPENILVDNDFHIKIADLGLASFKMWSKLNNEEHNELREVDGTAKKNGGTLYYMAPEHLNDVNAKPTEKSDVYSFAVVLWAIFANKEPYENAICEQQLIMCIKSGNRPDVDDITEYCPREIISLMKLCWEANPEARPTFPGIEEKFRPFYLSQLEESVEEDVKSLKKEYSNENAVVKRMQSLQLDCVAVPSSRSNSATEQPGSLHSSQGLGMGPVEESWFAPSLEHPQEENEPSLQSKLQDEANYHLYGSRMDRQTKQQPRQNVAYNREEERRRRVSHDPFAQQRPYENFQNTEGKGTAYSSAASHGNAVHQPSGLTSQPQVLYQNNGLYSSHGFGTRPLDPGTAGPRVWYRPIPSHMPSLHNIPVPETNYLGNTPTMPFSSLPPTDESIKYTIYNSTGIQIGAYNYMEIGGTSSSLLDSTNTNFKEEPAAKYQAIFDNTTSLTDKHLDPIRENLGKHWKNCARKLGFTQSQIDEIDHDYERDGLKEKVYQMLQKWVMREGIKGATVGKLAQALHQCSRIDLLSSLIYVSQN
In short: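 RIPK1 at 31 ng/well in Tris pH 7.4 buffer with MgCl2, BSA, DTT and MnCl2, reacted with compounds (duplicate) for 30 min at 30 °C. ADP formed detected by ADP-Glo: 40 min stop/depletion, then 30 min detection reagent at room temperature; luminescence read.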

[4] = read-out: RIPK1 ADP-Glo Kinase (IC50)

Structure (SMILES) | pIC50 [3, 4] | pIC50 [1] | pIC50 [2] | pIC50 [3]
CN1C(=O)[C@@H](NC(=O)n2cc(Cc3cccnc3F)cn2)COc2ccc(C#CC3(O)COC3)cc21 [I-47, (S)-4-((2-Fluoropyridin-3-yl)methyl)-N-(7-((3-hydroxyoxetan-3-yl)ethynyl)-5-methyl-4-oxo-2,3,4,5-tetrahydrobenzo[b][1,4]oxazepin-3-yl)-1H-pyrazole-1-carboxamide] | 7.76 | 7.39 | 5.54 | –
CN1C(=O)[C@@H](NC(=O)c2cc(Oc3cccnc3)ccn2)COc2ccc(C#CC(C)(C)C)cc21 [I-102, (S)—N-(7-(3,3-dimethylbut-1-yn-1-yl)-5-methyl-4-oxo-2,3,4,5-tetrahydrobenzo[b][1,4]oxazepin-3-yl)-4-(pyridin-3-yloxy)picolinamide] | 7.53 | 8.12 | 6.19 | –
CN1C(=O)[C@@H](NC(=O)n2cc(Cc3ccc(F)nc3)cn2)COc2ccc(C#CC(C)(C)O)cc21 [I-16, (S)-4-((6-Fluoropyridin-3-yl)methyl)-N-(7-(3-hydroxy-3-methylbut-1-yn-1-yl)-5-methyl-4-oxo-2,3,4,5-tetrahydrobenzo[b][1,4]oxazepin-3-yl)-1H-pyrazole-1-carboxamide] | 7.42 | 7.76 | 5.62 | –
CN1C(=O)[C@@H](NC(=O)n2cc(Cc3cccnc3F)cn2)COc2ccc(C#CC(C)(C)CO)cc21 [I-46, (S)-4-((2-Fluoropyridin-3-yl)methyl)-N-(7-(4-hydroxy-3,3-dimethylbut-1-yn-1-yl)-5-methyl-4-oxo-2,3,4,5-tetrahydrobenzo[b][1,4]oxazepin-3-yl)-1H-pyrazole-1-carboxamide] | 7.43 | 8.01 | 5.63 | –
CN1C(=O)[C@@H](NC(=O)c2cc(Oc3cccnc3C(F)(F)F)ccn2)COc2ccc(C#CC(C)(C)O)cc21 [I-87, (S)—N-(7-(3-hydroxy-3-methylbut-1-yn-1-yl)-5-methyl-4-oxo-2,3,4,5-tetrahydrobenzo[b][1,4]oxazepin-3-yl)-4-((2-(trifluoromethyl)pyridin-3-yl)oxy)picolinamide] | 7.29 | 6.27 | 4.95 | –
CN1C(=O)[C@@H](NC(=O)c2cc(Oc3cccnc3F)ccn2)COc2ccc(C#CC(C)(C)C)cc21 [I-95, (S)—N-(7-(3,3-dimethylbut-1-yn-1-yl)-5-methyl-4-oxo-2,3,4,5-tetrahydrobenzo[b][1,4]oxazepin-3-yl)-4-((2-fluoropyridin-3-yl)oxy)picolinamide] | 7.20 | 8.49 | 6.45 | –
CN1C(=O)[C@@H](NC(=O)n2cc(Cc3cccc(F)n3)cn2)CCc2ccc(C#CC3(O)COC3)cc21 [I-113, (S)-4-((6-Fluoropyridin-2-yl)methyl)-N-(8-((3-hydroxyoxetan-3-yl)ethynyl)-1-methyl-2-oxo-2,3,4,5-tetrahydro-1H-benzo[b]azepin-3-yl)-1H-pyrazole-1-carboxamide] | 7.93 | 8.89 | 7.43 | –
CN1C(=O)[C@@H](NC(=O)c2cc(Cc3cccnc3F)ccn2)COc2ccc(C#CC3(O)COC3)cc21 [I-26, (S)-4-((2-fluoropyridin-3-yl)methyl)-N-(7-((3-hydroxyoxetan-3-yl)ethynyl)-5-methyl-4-oxo-2,3,4,5-tetrahydrobenzo[b][1,4]oxazepin-3-yl)picolinamide] | 7.45 | 8.28 | 6.39 | –
CN1C(=O)[C@@H](NC(=O)n2cc(Cc3cccc(F)n3)cn2)CCc2ccc(C#CC3(O)CCC3)cc21 [I-117, (S)-4-((6-Fluoropyridin-2-yl)methyl)-N-(8-((1-hydroxycyclobutyl)ethynyl)-1-methyl-2-oxo-2,3,4,5-tetrahydro-1H-benzo[b]azepin-3-yl)-1H-pyrazole-1-carboxamide] | – | 8.92 | 7.88 | 7.91

Second part, led by results:

pIC50 [3, 4] | Structure (SMILES) | pIC50 [1] | pIC50 [2] | pIC50 [3]
7.17 | Cc1ccc(Oc2ccnc(C(=O)N[C@H]3COc4ccc(C#CC5(O)COC5)cc4N(C)C3=O)c2)c(C)n1 [I-79, (S)-4-((2,6-dimethylpyridin-3-yl)oxy)-N-(7-((3-hydroxyoxetan-3-yl)ethynyl)-5-methyl-4-oxo-2,3,4,5-tetrahydrobenzo[b][1,4]oxazepin-3-yl)picolinamide] | 6.74 | 5.36 | –
7.61 | Cc1cccc(Oc2ccnc(C(=O)N[C@H]3COc4ccc(C#CC5(O)COC5)cc4N(C)C3=O)c2)n1 [I-131, (S)—N-(7-((3-hydroxyoxetan-3-yl)ethynyl)-5-methyl-4-oxo-2,3,4,5-tetrahydrobenzo[b][1,4]oxazepin-3-yl)-4-((6-methylpyridin-2-yl)oxy)picolinamide] | 6.58 | 5.57 | –
7.44 | Cc1ccc(Oc2ccnc(C(=O)N[C@H]3COc4ccc(C#CC(C)(C)O)cc4N(C)C3=O)c2)c(C)n1 [I-78, (S)-4-((2,6-dimethylpyridin-3-yl)oxy)-N-(7-(3-hydroxy-3-methylbut-1-yn-1-yl)-5-methyl-4-oxo-2,3,4,5-tetrahydrobenzo[b][1,4]oxazepin-3-yl)picolinamide] | 6.34 | 5.17 | –
7.70 | CN1C(=O)[C@@H](NC(=O)c2cc(Cc3csc(C(F)(F)F)n3)ccn2)COc2ccc(C#CC(C)(C)O)cc21 [I-123, (S)—N-(7-(3-hydroxy-3-methylbut-1-yn-1-yl)-5-methyl-4-oxo-2,3,4,5-tetrahydrobenzo[b][1,4]oxazepin-3-yl)-4-((2-(trifluoromethyl)thiazol-4-yl)methyl)picolinamide] | 7.01 | 6.07 | –
7.84 | CN1C(=O)[C@@H](NC(=O)c2cc(Oc3cccnc3F)ccn2)COc2ccc(C#CC3COC3)cc21 [I-55, (S)-4-((2-fluoropyridin-3-yl)oxy)-N-(5-methyl-7-(oxetan-3-ylethynyl)-4-oxo-2,3,4,5-tetrahydrobenzo[b][1,4]oxazepin-3-yl)picolinamide] | 8.92 | 6.81 | –
7.67 | CN1C(=O)[C@@H](NC(=O)c2cc(Cc3cccnc3)ccn2)COc2ccc(C#CC3(O)COC3)cc21 [I-62, (S)—N-(7-((3-hydroxyoxetan-3-yl)ethynyl)-5-methyl-4-oxo-2,3,4,5-tetrahydrobenzo[b][1,4]oxazepin-3-yl)-4-(pyridin-3-ylmethyl)picolinamide] | 7.96 | 5.86 | –
7.44 | Cc1ncccc1Oc1ccnc(C(=O)N[C@H]2COc3ccc(C#CC(C)(C)O)cc3N(C)C2=O)c1 [I-74, (S)—N-(7-(3-hydroxy-3-methylbut-1-yn-1-yl)-5-methyl-4-oxo-2,3,4,5-tetrahydrobenzo[b][1,4]oxazepin-3-yl)-4-((2-methylpyridin-3-yl)oxy)picolinamide] | 6.90 | 5.45 | –
7.81 | Cc1cccc(Cc2cnn(C(=O)N[C@H]3COc4ccc(C#CC5(O)COC5)cc4N(C)C3=O)c2)n1 [I-103, (S)—N-(7-((3-Hydroxyoxetan-3-yl)ethynyl)-5-methyl-4-oxo-2,3,4,5-tetrahydrobenzo[b][1,4]oxazepin-3-yl)-4-((6-methylpyridin-2-yl)methyl)-1H-pyrazole-1-carboxamide] | 6.98 | 5.89 | –
7.74 | CN1C(=O)[C@@H](NC(=O)c2cc(Cc3cccnc3F)ccn2)COc2ccc(C#CC3CCOCC3)cc21 [I-51, (S)-4-((2-fluoropyridin-3-yl)methyl)-N-(5-methyl-4-oxo-7-((tetrahydro-2H-pyran-4-yl)ethynyl)-2,3,4,5-tetrahydrobenzo[b][1,4]oxazepin-3-yl)picolinamide] | 9.40 | 8.02 | –
7.48 | Cc1cccc(Oc2ccnc(C(=O)N[C@H]3COc4ccc(C#CC(C)(C)O)cc4N(C)C3=O)c2)n1 [I-130, (S)—N-(7-(3-hydroxy-3-methylbut-1-yn-1-yl)-5-methyl-4-oxo-2,3,4,5-tetrahydrobenzo[b][1,4]oxazepin-3-yl)-4-((6-methylpyridin-2-yl)oxy)picolinamide] | 6.51 | 5.30 | –
7.74 | CN1C(=O)[C@@H](NC(=O)c2cc(Oc3cccnc3)ccn2)COc2ccc(C#CC3(O)COC3)cc21 [I-57, (S)—N-(7-((3-hydroxyoxetan-3-yl)ethynyl)-5-methyl-4-oxo-2,3,4,5-tetrahydrobenzo[b][1,4]oxazepin-3-yl)-4-(pyridin-3-yloxy)picolinamide] | 8.80 | 6.36 | –
